Results on 3 compounds are retold here after ChEMBL document CHEMBL3046846, “Synthesis of N-Alkyl-2, 3-dimethyl-5-[N-(5-halo-2-methylphenyl)carbamoyl]-6-pyrazinecarboxamides and Their Herbicidal Activity” (J Pestic Sci, 1997).

Series [1] relates to Avena fatua. The series is described as follows: Herbicidal activity against Avena fatua at 250 g/ha after 2 weeks. The series is classed as functional.
The subject of series [2] is Echinochloa crus-galli. In words: Herbicidal activity against Echinochloa crus-galli (barnyard grass) at 250 g/ha after 2 weeks. The series is classed as functional.
Series [3] concerns Triticum aestivum. The series is described as follows: Herbicidal activity against Triticum aestivum (wheat) at 5000 g/ha after 2 weeks. The series is classed as ADME, organism-based. As to conditions: in vivo, 336 h.
The subject of series [4] is Glycine max. In words: Herbicidal activity against Glycine max (soybean) at 250 g/ha after 2 weeks. The series is classed as organism-based. As to conditions: in vivo, 336 h.
Series [5] deals with Veronica persica. The series is described as follows: Herbicidal activity against Veronica persica at 5000 g/ha after 2 weeks. The series is classed as functional.
In series [6] the test system is Galium spurium. In words: Herbicidal activity against Galium spurium var. echinospermon (Wally.) Hayek at 5000 g/ha after 2 weeks. The series is classed as functional.
The subject of series [7] is Echinochloa crus-galli. In words: Herbicidal activity against Echinochloa crus-galli (barnyard grass) at 500 g/ha after 2 weeks. The series is classed as functional.
Series [8] deals with Triticum aestivum. In words: Herbicidal activity against Triticum aestivum (wheat) at 500 g/ha after 2 weeks. The series is classed as ADME, organism-based. The note with it: in vivo, 336 h.
Series [9] deals with Veronica persica. In words: Herbicidal activity against Veronica persica at 250 g/ha after 2 weeks. The series is classed as functional.
The test system of series [10] is Xanthium strumarium. In words: Herbicidal activity against Xanthium strumarium (cocklebur) 5000 g/ha after 2 weeks. The series is classed as functional.
Series [11] concerns Xanthium strumarium. In words: Herbicidal activity against Xanthium strumarium (cocklebur) 250 g/ha after 2 weeks. The series is classed as functional.
Series [12] concerns Galium spurium. In words: Herbicidal activity against Galium spurium var. echinospermon (Wally.) Hayek at 500 g/ha after 2 weeks. The series is classed as functional.
In series [13] the test system is Abutilon theophrasti. The series is described as follows: Herbicidal activity against Abutilon theophrasti (velvetleaf) at 500 g/ha after 2 weeks. The series is classed as functional.
The subject of series [14] is Glycine max. In words: Herbicidal activity against Glycine max (soybean) at 5000 g/ha after 2 weeks. The series is classed as organism-based. The note with it: in vivo, 336 h.
Series [15] concerns Avena fatua. In words: Herbicidal activity against Avena fatua at 500 g/ha after 2 weeks. The series is classed as functional.
In series [16] the test system is Galium spurium. The series is described as follows: Herbicidal activity against Galium spurium var. echinospermon (Wally.) Hayek at 250 g/ha after 2 weeks. The series is classed as functional.
For series [17], the system named is Echinochloa crus-galli. In words: Herbicidal activity against Echinochloa crus-galli (barnyard grass) at 5000 g/ha after 2 weeks. The series is classed as functional.
The subject of series [18] is Xanthium strumarium. In words: Herbicidal activity against Xanthium strumarium (cocklebur) 500 g/ha after 2 weeks. The series is classed as functional.
In series [19] the test system is Avena fatua. The series is described as follows: Herbicidal activity against Avena fatua at 5000 g/ha after 2 weeks. The series is classed as functional.
Series [20] relates to Abutilon theophrasti. The series is described as follows: Herbicidal activity against Abutilon theophrasti (velvetleaf) at 250 g/ha after 2 weeks. The series is classed as functional.
In series [21] the test system is Veronica persica. In words: Herbicidal activity against Veronica persica at 500 g/ha after 2 weeks. The series is classed as functional.
Series [22] deals with Glycine max. The series is described as follows: Herbicidal activity against Glycine max (soybean) at 500 g/ha after 2 weeks. The series is classed as organism-based. The note with it: in vivo, 336 h.
Series [23] deals with Triticum aestivum. In words: Herbicidal activity against Triticum aestivum (wheat) at 250 g/ha after 2 weeks. As to conditions: in vivo, 336 h. The series is classed as organism-based.
In series [24] the test system is Abutilon theophrasti. In words: Herbicidal activity against Abutilon theophrasti (velvetleaf) at 5000 g/ha after 2 weeks. The series is classed as functional.

In the case of `CCNC(=O)c1nc(C)c(C)nc1C(=O)Nc1cc(Cl)ccc1C`, the Activity was under 10% in the series on Avena fatua [1]; under 10% with Echinochloa crus-galli [2]; 10% with Triticum aestivum [3]; under 10% in the series on Glycine max [4]; 95% with Veronica persica [5]; 30% with Galium spurium [6]. In addition, the Activity in the series with Echinochloa crus-galli [7] is given as under 10%; in the series on Triticum aestivum [8], under 10%; in the series on Veronica persica [9], under 10%; in the series with Xanthium strumarium [10] it was 95%; in the series on Xanthium strumarium [11], under 10%; in the series on Galium spurium [12], under 10%. For the same compound, the Activity is under 10% in the series with Abutilon theophrasti [13]; under 10% in the series with Glycine max [14]; under 10% with Avena fatua [15]; under 10% in the series with Galium spurium [16]; 50% with Echinochloa crus-galli [17]; 10% in the series with Xanthium strumarium [18]. The Activity was under 10% in the series on Avena fatua [19]; under 10% in the series on Abutilon theophrasti [20]; 70% with Veronica persica [21]; under 10% in the series with Glycine max [22]; under 10% in the series on Triticum aestivum [23]; 30% in the series with Abutilon theophrasti [24].

For the compound `CCCNC(=O)c1nc(C)c(C)nc1C(=O)Nc1cc(Cl)ccc1C`, the Activity with Avena fatua [1] is on record as under 10%; in the series with Echinochloa crus-galli [2], under 10%; in the series with Triticum aestivum [3], 30%; with Glycine max [4], under 10%; with Veronica persica [5] it was 95%; with Galium spurium [6], 50%. Further, the Activity in the series with Echinochloa crus-galli [7] is under 10%; with Triticum aestivum [8], under 10%; with Veronica persica [9], 95%; in the series on Xanthium strumarium [10], 30%; with Xanthium strumarium [11] it was under 10%; in the series with Galium spurium [12], under 10%. The Activity in the series on Abutilon theophrasti [13] is on record as under 10%; in the series with Glycine max [14] it was under 10%; in the series on Avena fatua [15] it was under 10%; with Galium spurium [16], under 10%; in the series on Echinochloa crus-galli [17], 50%; with Xanthium strumarium [18], 50%. The Activity is under 10% with Avena fatua [19]; under 10% with Abutilon theophrasti [20]; 70% in the series with Veronica persica [21]; under 10% in the series with Glycine max [22]; under 10% in the series on Triticum aestivum [23]; 95% in the series with Abutilon theophrasti [24].

In the case of `Cc1ccc(Cl)cc1NC(=O)c1nc(C)c(C)nc1C(=O)NC(C)C`, the Activity is given as under 10% in the series on Avena fatua [1]; under 10% in the series on Echinochloa crus-galli [2]; 30% with Triticum aestivum [3]; under 10% with Glycine max [4]; 95% with Veronica persica [5]; 95% in the series on Galium spurium [6]. The Activity with Echinochloa crus-galli [7] is on record as under 10%; with Triticum aestivum [8] it was under 10%; in the series on Veronica persica [9], 50%; in the series on Xanthium strumarium [10], 95%; in the series with Xanthium strumarium [11], 50%; in the series with Galium spurium [12], under 10%. Besides, the Activity in the series with Abutilon theophrasti [13] is given as under 10%; with Glycine max [14], under 10%; in the series with Avena fatua [15] it was under 10%; in the series with Galium spurium [16], under 10%; with Echinochloa crus-galli [17], 70%; in the series with Xanthium strumarium [18], 50%. Besides, the Activity in the series on Avena fatua [19] is recorded as 50%; with Abutilon theophrasti [20] it was under 10%; in the series with Veronica persica [21], 95%; in the series with Glycine max [22], under 10%; with Triticum aestivum [23], under 10%; in the series with Abutilon theophrasti [24], 95%.
